Results reported in US20240140941A1, “DERIVATIVE OF 2,5-DIKETOPIPERAZINE COMPOUND, AND PREPARATION METHOD THEREFOR, PHARMACEUTICAL COMPOSITION THEREOF AND USE THEREOF” (DALIAN WZ PROBIOTICS AD HEALTH CO., LTD, priority 2020, published 2024).
Structures can show the parent of a compound that is named as a salt. Where two headings read alike, the source gives them in different places.

Tests used:
HT-29 = experiment: Inhibition test on cell proliferation (MTT), HT-29; format: cell-based, human; conditions: 72 hours of drug treatment
Protocol: (§1) Tumor cells (NCI-H460, BxPC-3, HT-29, HCC-LM3) in the logarithmic growth phase were digested, centrifuged, and the supernatants were removed. Cells were resuspended by adding fresh culture medium, and counted using a cell counting plate. 100 μL of culture medium (containing cells) was added to a 96-well plate according to the standard of 2000 to 6000 cells per well and incubated in an incubator (37° C., 5% CO2) for 24 hours. After the cells were completely adhered to the wall, the test sample and Plinabulin were diluted to different concentrations using fresh culture medium, and 4 wells were set for each concentration. After 72 hours of drug treatment, the culture medium was removed, and 20 μL of MTT at a concentration of 5 mg/mL was added to each well. After 3-4 hours in the incubator, the MTT was discarded, and 100 μL of DMSO was added to each well, and placed in a 96-well plate shaker to completely dissolve the purple formazan. Subsequently, the absorbance (OD value) was detected at a wavelength of 490 nm using a microplate reader. The experiment also required setting up zero-setting wells (blank culture medium, MTT, DMSO). Cell inhibition rate=1−(OD value of drug-dosed group−OD value of zero-setting group)/(OD value of blank group−OD value of zero-setting group)×100%.

HCC-LM3 = experiment: Inhibition test on cell proliferation (MTT), HCC-LM3; format: cell-based, human; conditions: read-out: IC50 (nM) HCC-LM3
Protocol: as §1

BxPC-3 = experiment: Inhibition test on cell proliferation (MTT), BxPC-3; format: cell-based, human; conditions: read-out: IC50 (nM) BxPC-3
Protocol: as §1

NCI-H460 = experiment: Inhibition test on cell proliferation (MTT), NCI-H460; format: cell-based, human
Protocol: as §1

[1] = 72 hours of drug treatment, MTT, mesylate
[2] = Homo sapiens, BXPC-3, 72 h, 72 hours of drug treatment, MTT
[3] = Homo sapiens, NCI-H460, 72 h, 72 hours of drug treatment, MTT, read-out: IC50 (nM) NCI-H460
[4] = Homo sapiens, HCCLM3, 72 h, 72 hours of drug treatment, MTT
[5] = 72 hours of drug treatment, MTT, mesylate, read-out: IC50 (nM) NCI-H460
[6] = 72 hours of drug treatment, MTT, hydrochloride
[7] = 72 hours of drug treatment, MTT, hydrochloride, read-out: IC50 (nM) NCI-H460

| Compound | melting point [°C] | IC50 (HT-29; Homo sapiens, HT-29, 72 h) [nM] | IC50 (BxPC-3; [2]) [nM] | IC50 (NCI-H460; [3]) [nM] | IC50 (HCC-LM3; [4]) [nM] | other results |
| --- | --- | --- | --- | --- | --- | --- |
| CC(C)c1c(/C=c2\[nH]c(=O)/c(=C/c3cccc(F)c3)[nH]c2=O)ncn1CCCN1CCO[C@H](C)C1 (as salt: hydrochloride) [PLN-2-56-1, (3Z,6Z)-3-(3-Fluorophenyl)methylene-6-(5-isopropyl-1-(3-(R)-(2-methylmorpholinyl)propylimidazol-4-yl)methylene)piperazine-2,5-dione, hydrochloride] | 232.8 to 234.8 | – | – | – | – | – |
| CC(C)c1c(/C=c2\[nH]c(=O)/c(=C/c3cccc(F)c3)[nH]c2=O)ncn1CCCN1CCO[C@@H](C)C1 (as salt: hydrochloride) [PLN-2-57-1, (3Z,6Z)-3-(3-Fluorophenyl)methylene-6-(5-isopropyl-1-(3-S)—(−2-methylmorpholinyl)propylimidazol-4-yl)methylene)piperazine-2,5-dione, hydrochloride] | 232.2 to 234.2 | – | – | – | – | – |
| CC(C)c1c(/C=c2\[nH]c(=O)/c(=C/c3cccc(C(=O)c4ccc(F)cc4)c3)[nH]c2=O)ncn1CCCN1CCOCC1 [PLN-2-1-2, (3Z,6Z)-3-(3-(p-Fluorobenzoyl)phenyl)methylene-6-((5-isopropyl-1-(3-morpholinyl)propylimidazol-4-yl)methylene)piperazine-2,5-dione, mesylate] | – | 1.42 ± 0.46 | 1.33 ± 0.19 | 1.95 ± 0.08 | – | IC50 (HCC-LM3; [1]): 1.85 ± 0.27 nM |
| CC(C)c1c(/C=c2\[nH]c(=O)/c(=C/c3cccc(F)c3)[nH]c2=O)ncn1CCCN1CCOCC1 [PLN-2-9-2, mesylate] | – | – | – | – | – | IC50 (HT-29; mesylate): 5.84 ± 1.66 nM; IC50 (HCC-LM3; [1]): 6.08 ± 0.51 nM; IC50 (BxPC-3; [1]): 5.14 ± 0.52 nM; IC50 (NCI-H460; [5]): 8.49 ± 0.72 nM |
| O=c1[nH]/c(=C\c2ncn(CCCN3CCOCC3)c2C2CC2)c(=O)[nH]/c1=C\c1cccc(F)c1 [PLN-2-10-2, (3Z,6Z)-3-(3-Fluorophenyl)methylene-6-((5-cyclopropyl-1-(3-morpholinyl)propylimidazol-4-yl)methylene)piperazine-2,5-dione, mesylate] | – | – | – | – | – | IC50 (HT-29; mesylate): 13.2 ± 2.15 nM; IC50 (HCC-LM3; [1]): 13.3 ± 4.02 nM; IC50 (BxPC-3; [1]): 12.6 ± 0.96 nM; IC50 (NCI-H460; [5]): 11.2 ± 2.04 nM |
| CC(C)c1c(/C=c2\[nH]c(=O)/c(=C/c3cccc(Oc4ccc(F)cc4)c3)[nH]c2=O)ncn1CCCN1CCNCC1 [PLN-2-18] | 176 to 178 | – | – | 99.72 ± 0.82 | – | – |
| CC(C)c1c(/C=c2\[nH]c(=O)/c(=C/c3cccc(C(=O)c4ccc(F)cc4)c3)[nH]c2=O)ncn1CCCN1CCN(C(=O)C2CCC2)CC1 [PLN-2-36, (3Z,6Z)-3-(3-(p-fluorobenzoyl)phenyl)methylene-6-((5-isopropyl-1-(3-N-cyclobutanoylpiperazinyl)propylimidazol-4-yl)methylene)piperazine-2,5-dione] | – | 2.97 ± 0.51 | 2.25 ± 1.22 | 4.31 ± 0.59 | – | – |
| CC(C)c1c(/C=c2\[nH]c(=O)/c(=C/c3cccc(F)c3)[nH]c2=O)ncn1CCCN1CCO[C@H](C)C1 [PLN-2-56-1, (3Z,6Z)-3-(3-Fluorophenyl)methylene-6-(5-isopropyl-1-(3-(R)-(2-methylmorpholinyl)propylimidazol-4-yl)methylene)piperazine-2,5-dione, hydrochloride] | – | – | – | – | – | IC50 (HT-29; hydrochloride): 4.43 ± 0.13 nM; IC50 (HCC-LM3; [6]): 4.72 ± 0.73 nM; IC50 (BxPC-3; [6]): 4.99 ± 0.19 nM; IC50 (NCI-H460; [7]): 7.69 ± 0.28 nM |
| CC(C)c1c(/C=c2\[nH]c(=O)/c(=C/c3cccc(F)c3)[nH]c2=O)ncn1CCCN1CCO[C@@H](C)C1 [PLN-2-57-1, (3Z,6Z)-3-(3-Fluorophenyl)methylene-6-(5-isopropyl-1-(3-S)—(−2-methylmorpholinyl)propylimidazol-4-yl)methylene)piperazine-2,5-dione, hydrochloride] | – | – | – | – | – | IC50 (HT-29; hydrochloride): 10.6 ± 3.68 nM; IC50 (HCC-LM3; [6]): 12.9 ± 1.61 nM; IC50 (BxPC-3; [6]): 14.1 ± 1.23 nM; IC50 (NCI-H460; [7]): 17.5 ± 0.71 nM |
| CCOCC1CN(CCCn2cnc(/C=c3\[nH]c(=O)/c(=C/c4cccc(F)c4)[nH]c3=O)c2C(C)C)CCO1 (centres unmarked) [PLN-2-58, (3Z,6Z)-3-(3-Fluorophenyl)methylene-6-(5-isopropyl-1-(3-(2-(ethoxymethyl)morpholinyl)propylimidazol-4-yl)methylene)piperazine-2,5-dione] | 202 to 204 | – | 8.1 ± 1.44 | 11.8 ± 1.82 | 16.7 ± 0.98 | – |
| CCCOCC1CN(CCCn2cnc(/C=c3\[nH]c(=O)/c(=C/c4cccc(F)c4)[nH]c3=O)c2C(C)C)CCO1 (centres unmarked) [PLN-2-59, (3Z,6Z)-3-(3-fluorophenyl)methylene-6-(5-isopropyl-1-(3-(2-(propoxymethyl)morpholinyl)propylimidazol-4-yl)methylene)piperazine-2,5-dione] | 178 to 180 | – | 15.5 ± 0.74 | 27.4 ± 0.52 | 23.3 ± 2.49 | – |
| CC(C)c1c(/C=c2\[nH]c(=O)/c(=C/c3cccc(F)c3)[nH]c2=O)ncn1CCCN1CCOC(COCc2ccccc2)C1 (centres unmarked) [PLN-2-60, (3Z,6Z)-3-(3-Fluorophenyl)methylene-6-(5-isopropyl-1-(3-(2-(benzyloxymethyl)morpholinyl)propylimidazol-4-yl)methylene)piperazine-2,5-dione] | 157 to 159 | – | – | – | – | IC50 (HCC-LM3; Homo sapiens, HCCLM3, 72 h): 49.2 ± 1.3 nM; IC50 (BxPC-3; Homo sapiens, BXPC-3, 72 h): 27.2 ± 1.42 nM; IC50 (NCI-H460; Homo sapiens, NCI-H460, 72 h, read-out: IC50 (nM) NCI-H460, 72 hours of drug treatment, MTT): 59.67 ± 0.3 nM |
| CC(C)c1c(/C=c2\[nH]c(=O)/c(=C/c3cc(F)cc(F)c3)[nH]c2=O)ncn1CCCN1CCOCC1 [PLN-2-62-2, (3Z,6Z)-3-(3,5-Difluorophenyl)methylene-6-((5-isopropyl-1-(3-morpholinyl)propylimidazol-4-yl)methylene)piperazine-2,5-dione, mesylate] | – | – | – | – | – | IC50 (HT-29; mesylate): 3.55 ± 0.04 nM; IC50 (HCC-LM3; [1]): 3.99 ± 0.08 nM; IC50 (BxPC-3; [1]): 3.66 ± 1.15 nM; IC50 (NCI-H460; [5]): 4.6 ± 1.33 nM |

Continued, in another order:

| melting point [°C] | IC50 (HT-29; Homo sapiens, HT-29, 72 h) [nM] | IC50 (BxPC-3; [2]) [nM] | IC50 (NCI-H460; [3]) [nM] | IC50 (HCC-LM3; [4]) [nM] | Compound | other results |
| --- | --- | --- | --- | --- | --- | --- |
| 173 to 175 | – | – | – | – | CC(C)c1c(/C=c2\[nH]c(=O)/c(=C/c3cccc(Oc4ccc(F)cc4)c3)[nH]c2=O)ncn1CCCN1CCOCC1 (as salt: hydrochloride) [PLN-2-2-1] | – |
| 220 to 222 | – | – | – | – | CC(C)c1c(/C=c2\[nH]c(=O)/c(=C/c3ccccc3)[nH]c2=O)ncn1CCCN1CCOCC1 (as salt: hydrochloride) [PLN-2-5-1, (3Z,6Z)-3-Benzylidene-6-((5-isopropyl-1-(3-morpholinyl)propylimidazol-4-yl)methylene)piperazine-2,5-dione, hydrochloride] | – |
| 174 to 176 | – | – | – | – | CC(C)c1c(/C=c2\[nH]c(=O)/c(=C/c3cc(F)ccc3F)[nH]c2=O)ncn1CCCN1CCOCC1 (as salt: hydrochloride) [PLN-2-7-1, (3Z,6Z)-3-(2,5-Difluorophenyl)methylene-6-((5-isopropyl-1-(3-morpholinyl)propylimidazol-4-yl)methylene)piperazine-2,5-dione, hydrochloride] | – |
| – | 25.3 ± 3.54 | 27.7 ± 0.94 | 33.5 ± 0.46 | 16.6 ± 0.66 | O=c1[nH]/c(=C\c2ncn(CCCN3CCOCC3)c2C2CC2)c(=O)[nH]/c1=C\c1ccccc1 [PLN-2-6, (3Z,6Z)-3-benzylidene-6-((5-cyclopropyl-1-(−3-morpholinyl)propylimidazol-4-yl)methylene)piperazine-2,5-dione] | – |
| 169 to 171 | 35.2 ± 2.15 | 27.3 ± 2.75 | 33.7 ± 0.7 | 18.4 ± 1.42 | Cc1ccccc1/C=c1\[nH]c(=O)/c(=C/c2ncn(CCCN3CCOCC3)c2C(C)C)[nH]c1=O [PLN-2-49, (3Z,6Z)-3-(2-Methylphenyl)methylene-6-((5-isopropyl-1-(3-morpholinyl)propylimidazol-4-yl)methylene)piperazine-2,5-dione] | – |
| 164 to 166 | 37.1 ± 3.15 | 23 ± 1.56 | 41.3 ± 1.25 | 20.8 ± 2.56 | Cc1cccc(/C=c2\[nH]c(=O)/c(=C/c3ncn(CCCN4CCOCC4)c3C(C)C)[nH]c2=O)c1C [PLN-2-50, (3Z,6Z)-3-(2,3-Dimethylphenyl)methylene-6-((5-isopropyl-1-(3-morpholinyl)propylimidazol-4-yl)methylene)piperazine-2,5-dione] | – |
| 178 to 180 | 9.03 ± 0.29 | 13.9 ± 3.21 | 21.7 ± 3.04 | 7.49 ± 0.12 | Cc1cccc(/C=c2\[nH]c(=O)/c(=C/c3ncn(CCCN4CCOCC4)c3C(C)C)[nH]c2=O)c1 [PLN-2-51, (3Z,6Z)-3-(3-Methylphenyl)methylene-6-((5-isopropyl-1-(3-morpholinyl)propylimidazol-4-yl)methylene)piperazine-2,5-dione] | – |
